Data from ChEMBL document CHEMBL1201862, “PubChem BioAssay data set” (2004).
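48-hour exposure; five concentrations; linearly interpolated endpoints. Here, GI50 denotes the concentration required for 50% inhibition of growth.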 The source made the active and inactive calls. Cut-off read from the data, not from the text of the source: active = GI50 up to about 1.1 µM and inactive = higher.

Legend:
Experiment in all cases: NCI anticancer screen, dose series, 48 h
OVCAR-5 = tested on: OVCAR-5
SK-OV-3 = tested on: SK-OV-3
T47D = tested on: T47D
Hs-578T = tested on: Hs-578T
SW-620 = tested on: SW-620
SNB-75 = tested on: SNB-75
IGROV-1 = tested on: IGROV-1
RXF 393 = tested on: RXF 393
SK-MEL-28 = tested on: SK-MEL-28
U-251 = tested on: U-251
OVCAR-3 = tested on: OVCAR-3
SF-268 = tested on: SF-268
MDA-N = tested on: MDA-N
A498 = tested on: A498
Malme-3M = tested on: Malme-3M
ACHN = tested on: ACHN
DU-145 = tested on: DU-145
SK-MEL-2 = tested on: SK-MEL-2
HCT-15 = tested on: HCT-15
K562 = tested on: K562
HOP-92 = tested on: HOP-92
CAKI-1 = tested on: CAKI-1
SK-MEL-5 = tested on: SK-MEL-5
NCI-H522 = tested on: NCI-H522
UACC-257 = tested on: UACC-257
TK-10 = tested on: TK-10
COLO 205 = tested on: COLO 205
HCT-116 = tested on: HCT-116
MOLT-4 = tested on: MOLT-4
NCI/ADR-RES = tested on: NCI/ADR-RES
NCI-H23 = tested on: NCI-H23
M14 = tested on: M14
MDA-MB-435 = tested on: MDA-MB-435
SF-295 = tested on: SF-295
HT-29 = tested on: HT-29
OVCAR-4 = tested on: OVCAR-4
BT-549 = tested on: BT-549
MDA-MB-231 = tested on: MDA-MB-231
NCI-H460 = tested on: NCI-H460
SF-539 = tested on: SF-539
NCI-H226 = tested on: NCI-H226
LOX IMVI = tested on: LOX IMVI
786-0 = tested on: 786-0
A549 = tested on: A549
SNB-19 = tested on: SNB-19
HOP-62 = tested on: HOP-62
SN12C = tested on: SN12C
OVCAR-8 = tested on: OVCAR-8
UACC-62 = tested on: UACC-62
CCRF-CEM = tested on: CCRF-CEM
PC-3 = tested on: PC-3
KM12 = tested on: KM12
EKVX = tested on: EKVX
HL-60 = tested on: HL-60
RPMI-8226 = tested on: RPMI-8226
SR = tested on: SR
HCC 2998 = tested on: HCC 2998
UO-31 = tested on: UO-31

For `Cn1nc(-c2ccccc2)nc1[N+](=O)[O-]`, the GI50 (OVCAR-5) was > 10 µM (inactive), the GI50 (SK-OV-3) was > 10 µM (inactive) and the GI50 (T47D) was > 10 µM (inactive). The GI50 (Hs-578T) was > 10 µM (inactive), the GI50 (SW-620) was > 10 µM (inactive) and the GI50 (SNB-75) was > 10 µM (inactive). For the same molecule, the GI50 (IGROV-1) was > 10 µM (inactive), the GI50 (RXF 393) was > 10 µM (inactive) and the GI50 (SK-MEL-28) was > 10 µM (inactive). The GI50 (U-251) was > 10 µM (inactive), the GI50 (OVCAR-3) was > 10 µM (inactive) and the GI50 (SF-268) was > 10 µM (inactive). The GI50 (MDA-N) was > 10 µM (inactive), the GI50 (A498) was > 10 µM (inactive) and the GI50 (Malme-3M) was > 10 µM (inactive). The GI50 (ACHN) was > 10 µM (inactive), the GI50 (DU-145) was > 10 µM (inactive) and the GI50 (SK-MEL-2) was > 10 µM (inactive). For the same molecule, the GI50 (HCT-15) was greater than 10 µM, the GI50 (K562) was > 10 µM (inactive) and the GI50 (HOP-92) was > 10 µM (inactive). The GI50 (CAKI-1) was > 10 µM (inactive), the GI50 (SK-MEL-5) was > 10 µM (inactive) and the GI50 (NCI-H522) was > 10 µM (inactive). For the same molecule, the GI50 (UACC-257) was > 10 µM (inactive), the GI50 (TK-10) was > 10 µM (inactive) and the GI50 (COLO 205) was > 10 µM (inactive). The GI50 (HCT-116) was > 10 µM (inactive), the GI50 (MOLT-4) was > 10 µM (inactive) and the GI50 (NCI/ADR-RES) was > 10 µM (inactive). The GI50 (NCI-H23) was > 10 µM (inactive), the GI50 (M14) was > 10 µM (inactive) and the GI50 (MDA-MB-435) was > 10 µM (inactive). For the same molecule, the GI50 (SF-295) was > 10 µM (inactive), the GI50 (HT-29) was > 10 µM (inactive) and the GI50 (OVCAR-4) was > 10 µM (inactive). The GI50 (BT-549) was > 10 µM (inactive), the GI50 (MDA-MB-231) was > 10 µM (inactive) and the GI50 (NCI-H460) was > 10 µM (inactive). For the same molecule, the GI50 (SF-539) was > 10 µM (inactive), the GI50 (NCI-H226) was > 10 µM (inactive) and the GI50 (LOX IMVI) was > 10 µM (inactive). The GI50 (786-0) was > 10 µM (inactive), the GI50 (A549) was > 10 µM (inactive) and the GI50 (SNB-19) was > 10 µM (inactive). The GI50 (HOP-62) was > 10 µM (inactive), the GI50 (SN12C) was > 10 µM (inactive) and the GI50 (OVCAR-8) was > 10 µM (inactive). For the same molecule, the GI50 (UACC-62) was > 10 µM (inactive), the GI50 (CCRF-CEM) was > 10 µM (inactive) and the GI50 (PC-3) was > 10 µM (inactive). For the same molecule, the GI50 (KM12) was > 10 µM (inactive), the GI50 (EKVX) was > 10 µM (inactive) and the GI50 (HL-60) was > 10 µM (inactive). The GI50 (RPMI-8226) was > 10 µM (inactive), the GI50 (SR) was > 10 µM (inactive) and the GI50 (HCC 2998) was > 10 µM (inactive). The GI50 (UO-31) was > 10 µM (inactive).
